Measurements taken from PubChem BioAssay AID256 (DTP/NCI, 2004).
Several values for one entry are separate records, joined by “and”; a condition that tells them apart may be missing. Identical values can stand only once. Toxic doses and inconclusive results are not listed.

Tested on: CD2F1 mice, L1210 leukemia ip, survival T/C
Test: NCI In Vivo Anticancer Drug Screen. Data for tumor model L1210 Leukemia (intraperitoneal) in CD2F1 (CDF1) mice
Conditions: higher = longer survival
Procedure, shortened: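 Activity against a transplanted murine tumor was judged by comparing the compound group with a vehicle group. The outcome in the treated animals was divided by that in the controls.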

`NC(=O)c1csc(C2OC(CO)C(O)C2O)n1` (stereo not drawn) was tested, and the T/C (endpoint: mean survival time, dose: 12.5 mg/kg/injection, schedule: Q01DX005 (ip), vehicle: water) was 111 % of control, the T/C (endpoint: mean survival time, dose: 25.0 mg/kg/injection, schedule: Q01DX005 (ip), vehicle: water) was 120 % of control and the T/C (endpoint: mean survival time, dose: 25.0 mg/kg/injection, schedule: Q01DX009 (ip), vehicle: water) was 158 % of control and 162 % of control. For the same molecule, the T/C (endpoint: mean survival time, dose: 50.0 mg/kg/injection, schedule: Q01DX005 (ip), vehicle: water) was 152 % of control, the T/C (endpoint: mean survival time, dose: 50.0 mg/kg/injection, schedule: Q01DX009 (ip), vehicle: water) was 166 % of control and 167 % of control and the T/C (endpoint: mean survival time, dose: 100.0 mg/kg/injection, schedule: Q01DX009 (ip), vehicle: saline) was 183 % of control. For the same molecule, the T/C (endpoint: mean survival time, dose: 100.0 mg/kg/injection, schedule: Q01DX009 (ip), vehicle: water) was 182 % of control, the T/C (endpoint: mean survival time, dose: 150.0 mg/kg/injection, schedule: Q01DX005 (ip), vehicle: water) was 150 % of control and the T/C (endpoint: mean survival time, dose: 200.0 mg/kg/injection, schedule: Q01DX009 (ip), vehicle: saline) was 182 % of control. For the same molecule, the T/C (endpoint: mean survival time, dose: 200.0 mg/kg/injection, schedule: Q01DX009 (ip), vehicle: water) was 203 % of control and 219 % of control, the T/C (endpoint: mean survival time, dose: 300.0 mg/kg/injection, schedule: Q01DX005 (ip), vehicle: water) was 155 % of control and the T/C (endpoint: mean survival time, dose: 400.0 mg/kg/injection, schedule: Q01DX005 (ip), vehicle: water) was 191 % of control and 192 % of control and 216 % of control. The T/C (endpoint: mean survival time, dose: 400.0 mg/kg/injection, schedule: Q01DX009 (ip), vehicle: saline) was 224 % of control, the T/C (endpoint: mean survival time, dose: 400.0 mg/kg/injection, schedule: Q01DX009 (ip), vehicle: water) was 200 % of control and 229 % of control and the T/C (endpoint: mean survival time, dose: 600.0 mg/kg/injection, schedule: Q01DX009 (ip), vehicle: saline) was 230 % of control. The T/C (endpoint: mean survival time, dose: 800.0 mg/kg/injection, schedule: Q01DX005 (ip), vehicle: water) was 206 % of control and 247 % of control, the T/C (endpoint: mean survival time, dose: 800.0 mg/kg/injection, schedule: Q01DX009 (ip), vehicle: saline) was 171 % of control and the T/C (endpoint: mean survival time, dose: 800.0 mg/kg/injection, schedule: Q01DX009 (ip), vehicle: water) was 185 % of control. The T/C (endpoint: median survival time, dose: 4.0 mg/kg/injection, schedule: Q03HX024 (ip), vehicle: water) was 150 % of control, the T/C (endpoint: median survival time, dose: 8.0 mg/kg/injection, schedule: Q03HX024 (ip), vehicle: water) was 186 % of control and the T/C (endpoint: median survival time, dose: 16.0 mg/kg/injection, schedule: Q03HX024 (ip), vehicle: water) was 168 % of control. The T/C (endpoint: median survival time, dose: 16.0 mg/kg/injection, schedule: Q04DX003 (ip), vehicle: water) was 101 % of control, the T/C (endpoint: median survival time, dose: 16.0 mg/kg/injection, schedule: Q#A X018 (ip), vehicle: water) was 174 % of control and the T/C (endpoint: median survival time, dose: 22.25 mg/kg/injection, schedule: Q01DX005 (ip), vehicle: water) was 97 % of control. For the same molecule, the T/C (endpoint: median survival time, dose: 23.44 mg/kg/injection, schedule: Q01DX005 (ip), vehicle: water) was 98 % of control, the T/C (endpoint: median survival time, dose: 32.0 mg/kg/injection, schedule: Q01DX001 (iv), vehicle: water) was 117 % of control and the T/C (endpoint: median survival time, dose: 32.0 mg/kg/injection, schedule: Q01DX005 (ip), vehicle: water) was 152 % of control. The T/C (endpoint: median survival time, dose: 32.0 mg/kg/injection, schedule: Q01DX009 (ip), vehicle: water) was 159 % of control and 176 % of control, the T/C (endpoint: median survival time, dose: 32.0 mg/kg/injection, schedule: Q01DX009 (oral), vehicle: water) was 163 % of control and the T/C (endpoint: median survival time, dose: 32.0 mg/kg/injection, schedule: Q03HX024 (ip), vehicle: water) was 184 % of control. The T/C (endpoint: median survival time, dose: 32.0 mg/kg/injection, schedule: Q04DX003 (ip), vehicle: water) was 109 % of control, the T/C (endpoint: median survival time, dose: 32.0 mg/kg/injection, schedule: Q#A X018 (ip), vehicle: water) was 195 % of control and the T/C (endpoint: median survival time, dose: 44.5 mg/kg/injection, schedule: Q01DX005 (ip), vehicle: water) was 102 % of control. The T/C (endpoint: median survival time, dose: 64.0 mg/kg/injection, schedule: Q01DX001 (ip), vehicle: water) was 110 % of control, the T/C (endpoint: median survival time, dose: 64.0 mg/kg/injection, schedule: Q01DX001 (iv), vehicle: water) was 120 % of control and the T/C (endpoint: median survival time, dose: 64.0 mg/kg/injection, schedule: Q01DX001 (oral), vehicle: water) was 111 % of control. For the same molecule, the T/C (endpoint: median survival time, dose: 64.0 mg/kg/injection, schedule: Q01DX005 (ip), vehicle: water) was 163 % of control, the T/C (endpoint: median survival time, dose: 64.0 mg/kg/injection, schedule: Q01DX005 (iv), vehicle: water) was 151 % of control and the T/C (endpoint: median survival time, dose: 64.0 mg/kg/injection, schedule: Q01DX005 (oral), vehicle: water) was 150 % of control. The T/C (endpoint: median survival time, dose: 64.0 mg/kg/injection, schedule: Q01DX009 (oral), vehicle: water) was 188 % of control, the T/C (endpoint: median survival time, dose: 64.0 mg/kg/injection, schedule: Q03HX024 (ip), vehicle: water) was 219 % of control and the T/C (endpoint: median survival time, dose: 64.0 mg/kg/injection, schedule: Q04DX003 (ip), vehicle: water) was 114 % of control. For the same molecule, the T/C (endpoint: median survival time, dose: 64.0 mg/kg/injection, schedule: Q#A X018 (ip), vehicle: water) was 210 % of control, the T/C (endpoint: median survival time, dose: 89.0 mg/kg/injection, schedule: Q01DX005 (ip), vehicle: water) was 94 % of control and the T/C (endpoint: median survival time, dose: 93.75 mg/kg/injection, schedule: Q01DX005 (ip), vehicle: water) was 101 % of control. The T/C (endpoint: median survival time, dose: 125.0 mg/kg/injection, schedule: Q01DX005 (ip), vehicle: water) was 168 % of control, the T/C (endpoint: median survival time, dose: 128.0 mg/kg/injection, schedule: Q01DX001 (ip), vehicle: water) was 114 % of control and the T/C (endpoint: median survival time, dose: 128.0 mg/kg/injection, schedule: Q01DX001 (oral), vehicle: water) was 123 % of control. The T/C (endpoint: median survival time, dose: 128.0 mg/kg/injection, schedule: Q01DX005 (ip), vehicle: water) was 164 % of control, the T/C (endpoint: median survival time, dose: 128.0 mg/kg/injection, schedule: Q01DX005 (iv), vehicle: water) was 166 % of control and the T/C (endpoint: median survival time, dose: 128.0 mg/kg/injection, schedule: Q01DX005 (oral), vehicle: water) was 163 % of control. For the same molecule, the T/C (endpoint: median survival time, dose: 128.0 mg/kg/injection, schedule: Q01DX009 (oral), vehicle: water) was 217 % of control, the T/C (endpoint: median survival time, dose: 128.0 mg/kg/injection, schedule: Q03HX024 (ip), vehicle: water) was 231 % of control and the T/C (endpoint: median survival time, dose: 128.0 mg/kg/injection, schedule: Q04DX003 (ip), vehicle: water) was 118 % of control. For the same molecule, the T/C (endpoint: median survival time, dose: 128.0 mg/kg/injection, schedule: Q#A X018 (ip), vehicle: water) was 240 % of control, the T/C (endpoint: median survival time, dose: 150.0 mg/kg/injection, schedule: Q01DX005 (ip), vehicle: water) was 157 % of control and the T/C (endpoint: median survival time, dose: 178.0 mg/kg/injection, schedule: Q01DX005 (ip), vehicle: water) was 98 % of control. For the same molecule, the T/C (endpoint: median survival time, dose: 250.0 mg/kg/injection, schedule: Q01DX005 (ip), vehicle: water) was 158 % of control and 179 % of control, the T/C (endpoint: median survival time, dose: 256.0 mg/kg/injection, schedule: Q01DX001 (ip), vehicle: water) was 117 % of control and the T/C (endpoint: median survival time, dose: 256.0 mg/kg/injection, schedule: Q01DX001 (oral), vehicle: water) was 122 % of control. For the same molecule, the T/C (endpoint: median survival time, dose: 256.0 mg/kg/injection, schedule: Q01DX005 (ip), vehicle: water) was 183 % of control, the T/C (endpoint: median survival time, dose: 256.0 mg/kg/injection, schedule: Q01DX005 (iv), vehicle: water) was 190 % of control and the T/C (endpoint: median survival time, dose: 256.0 mg/kg/injection, schedule: Q01DX005 (oral), vehicle: water) was 188 % of control. For the same molecule, the T/C (endpoint: median survival time, dose: 256.0 mg/kg/injection, schedule: Q01DX009 (oral), vehicle: water) was 227 % of control, the T/C (endpoint: median survival time, dose: 256.0 mg/kg/injection, schedule: Q03HX024 (ip), vehicle: water) was 246 % of control and the T/C (endpoint: median survival time, dose: 256.0 mg/kg/injection, schedule: Q#A X018 (ip), vehicle: water) was 252 % of control. The T/C (endpoint: median survival time, dose: 300.0 mg/kg/injection, schedule: Q01DX005 (ip), vehicle: water) was 166 % of control, the T/C (endpoint: median survival time, dose: 356.0 mg/kg/injection, schedule: Q01DX005 (ip), vehicle: water) was 101 % of control and the T/C (endpoint: median survival time, dose: 375.0 mg/kg/injection, schedule: Q01DX005 (ip), vehicle: water) was 92 % of control. For the same molecule, the T/C (endpoint: median survival time, dose: 500.0 mg/kg/injection, schedule: Q01DX005 (ip), vehicle: water) was 175 % of control and 201 % of control, the T/C (endpoint: median survival time, dose: 512.0 mg/kg/injection, schedule: Q01DX005 (ip), vehicle: water) was 190 % of control and the T/C (endpoint: median survival time, dose: 512.0 mg/kg/injection, schedule: Q01DX005 (iv), vehicle: water) was 217 % of control. For the same molecule, the T/C (endpoint: median survival time, dose: 512.0 mg/kg/injection, schedule: Q01DX005 (oral), vehicle: water) was 195 % of control, the T/C (endpoint: median survival time, dose: 512.0 mg/kg/injection, schedule: Q01DX009 (oral), vehicle: water) was 154 % of control and the T/C (endpoint: median survival time, dose: 512.0 mg/kg/injection, schedule: Q03HX024 (ip), vehicle: water) was 284 % of control. The T/C (endpoint: median survival time, dose: 512.0 mg/kg/injection, schedule: Q04DX003 (ip), vehicle: water) was 180 % of control, the T/C (endpoint: median survival time, dose: 512.0 mg/kg/injection, schedule: Q#A X018 (ip), vehicle: water) was 269 % of control and the T/C (endpoint: median survival time, dose: 600.0 mg/kg/injection, schedule: Q01DX005 (ip), vehicle: water) was 188 % of control. For the same molecule, the T/C (endpoint: median survival time, dose: 1000.0 mg/kg/injection, schedule: Q01DX005 (ip), vehicle: water) was 188 % of control and 191 % of control, the T/C (endpoint: median survival time, dose: 1024.0 mg/kg/injection, schedule: Q01DX005 (ip), vehicle: water) was 205 % of control and the T/C (endpoint: median survival time, dose: 1024.0 mg/kg/injection, schedule: Q01DX005 (iv), vehicle: water) was 226 % of control. The T/C (endpoint: median survival time, dose: 1024.0 mg/kg/injection, schedule: Q01DX005 (oral), vehicle: water) was 213 % of control, the T/C (endpoint: median survival time, dose: 1024.0 mg/kg/injection, schedule: Q01DX009 (oral), vehicle: water) was 110 % of control and the T/C (endpoint: median survival time, dose: 1024.0 mg/kg/injection, schedule: Q04DX003 (ip), vehicle: water) was 191 % of control. For the same molecule, the T/C (endpoint: median survival time, dose: 2048.0 mg/kg/injection, schedule: Q01DX001 (oral), vehicle: water) was 155 % of control, the T/C (endpoint: median survival time, dose: 2048.0 mg/kg/injection, schedule: Q01DX005 (oral), vehicle: water) was 98 % of control and the T/C (endpoint: median survival time, dose: 2048.0 mg/kg/injection, schedule: Q01DX009 (ip), vehicle: water) was 109 % of control. The T/C (endpoint: median survival time, dose: 2048.0 mg/kg/injection, schedule: Q04DX003 (ip), vehicle: water) was 223 % of control.
